Fluorescence lifetime data for 20 molecules are collected here from the Deep4Chem optical property database.

This data set is described as follows: solvent given as SMILES.

`CCC1(CC)c2cc(B(c3c(C)cc(C)cc3C)c3c(C)cc(C)cc3C)ccc2-c2c1c1c(c3c2C(CC)(CC)c2cc(B(c4c(C)cc(C)cc4C)c4c(C)cc(C)cc4C)ccc2-3)C(CC)(CC)c2cc(B(c3c(C)cc(C)cc3C)c3c(C)cc(C)cc3C)ccc2-1` had a fluorescence lifetime (in C1CCOC1) of 4.4 ns.

For the molecule `Nc1cccc2cn[nH]c12`, the fluorescence lifetime stood at 4.63 ns (in CC#N), 1.69 ns (in CO) and 1.74 ns (in O).

In turn, `O=C([O-])c1ccccc1C1=c2cc3c4c(c2Oc2c1cc1c5c2CCCN5CCC1)CCC[N+]=4CCC3` displayed a fluorescence lifetime (in CC#N) of 5.25 ns; a fluorescence lifetime (in CC(C)O) of 4.36 ns; a fluorescence lifetime (in CCCCCCCCO) of 4.17 ns; a fluorescence lifetime (in CCCCCCO) of 4.27 ns; a fluorescence lifetime (in CCCCO) of 4.3 ns; a fluorescence lifetime (in CCCO) of 4.3 ns. Also, the fluorescence lifetime by setting is: (in CCO) 4.74 ns; (in CN(C)C=O) 4.78 ns; (in CO) 4.59 ns; (in O) 4.91 ns; (in [2H]O[2H]) 4.8 ns.

Consider `COc1ccc(C2=C(C)C3=C(c4c(-c5ccccn5)nc5ccccn45)c4c(C)cc(C)n4[B-](F)(F)[N+]3=C2C)cc1`, for which the fluorescence lifetime (in ClCCl) turned out to be 2.2 ns.

`N#Cc1ccc2nc3[nH]c(=O)[nH]c(=O)c3nc2c1` had a fluorescence lifetime (in ClCCCl) of 0.18 ns.

Regarding `Cc1ccc(C2=C3C=CC(/C=C/c4ccccc4)=[N+]3[B-](F)(F)n3c(/C=C/c4ccccc4)ccc32)cc1`, the fluorescence lifetime turned out to be 4.37 ns (in C1CCCCC1); 4.09 ns (in C1CCOC1); 4.31 ns (in C1COCCO1); 4.77 ns (in CCOC(C)=O); 4.54 ns (in CO); 4.48 ns (in Cc1ccccc1). This molecule also had a fluorescence lifetime (in ClC(Cl)Cl) of 4.63 ns.

As to `CCCCCCCCCCc1cc(-c2cc(CCCCCCCCCC)c(-c3cccs3)s2)sc1-c1cccs1`, the fluorescence lifetime (in CCC(C)C) was 0.38 ns.

On to `COc1ccc2cc(-c3ccc([N+](=O)[O-])cc3)ccc2c1`, for which the fluorescence lifetime runs as follows: (in C1CCOC1) 0.33 ns; (in CC#N) 0.22 ns; (in ClC(Cl)Cl) 1.87 ns; (in ClCCl) 2.04 ns.

In turn, `F[B-]1(F)n2c(cc3c4ccccc4oc32)C(c2ccccc2)=C2C=c3c(oc4ccccc34)=[N+]21` came in with a fluorescence lifetime (in C1CCCCC1) of 3.99 ns, a fluorescence lifetime (in CCOC(C)=O) of 4.1 ns and a fluorescence lifetime (in CO) of 4.02 ns.

In the case of `c1ccc(N(c2ccccc2)c2ccc(-c3cccc4nc5ccccc5cc34)cc2)cc1`, the fluorescence lifetime (in CC#N) stood at 6.83 ns, the fluorescence lifetime (in CCCCCC) amounted to 1.95 ns, the fluorescence lifetime (in CCOCC) turned out to be 6.67 ns and the fluorescence lifetime (in ClCCl) came out at 14.5 ns.

`CC[n+]1nc2cc3c4c(c2c2cc(C)ccc21)CCCN4CCC3`: for the setting “in O”, the fluorescence lifetime was determined as 4.2 ns.

Consider `COc1ccc(-c2c3cc4ccccc4cc3c(C#Cc3ccccc3)c3cc4ccccc4cc23)cc1`, for which, where the note is “in ClCCl”, the fluorescence lifetime is 2.2 ns.

In turn, `Fc1ccc(-c2ccc(-c3cc(-c4ccccn4)nc(-c4ccccn4)c3)cc2)c(F)c1` had a fluorescence lifetime (in ClCCl) of 1.77 ns.

`COCc1ncc(-c2c3ccccc3c(-c3cnc(COC)nc3)c3ccccc23)cn1` displayed a fluorescence lifetime (in CCO) of 6.1 ns and a fluorescence lifetime (in ClCCl) of 6.5 ns.

Take `CCCCCCCCCCCCOc1cc2c3c(ccc4c5c(OCCCCCCCCCCCC)cc6c7c(ccc(c1c34)c75)C(=O)N(C1CCCCC1)C6=O)C(=O)N(C1CCCCC1)C2=O`: the fluorescence lifetime (in ClC(Cl)Cl) is 5.4 ns.

For `Cc1ccc(-c2ccc(/C=C/c3ccc(C#N)cc3)cn2)nc1`, the fluorescence lifetime (in CC#N) was 0.6 ns.

Take `Cc1oc2c(Cl)cc3c(C)cc(=O)oc3c2c1C`: the fluorescence lifetime worked out at 0.08 ns (in C1COCCO1), 0.15 ns (in CC#N), 0.79 ns (in CCO) and 2.4 ns (in OCC(F)(F)F).

Where the note is “in C1CCOC1”, `Cc1cc(C2=C(c3c(C)sc(-c4ccc(-c5nc(-c6ccccc6)c(-c6ccccc6)[nH]5)cc4)c3C)C(F)(F)C(F)(F)C2(F)F)c(C)s1` gave a fluorescence lifetime of 0.54 ns.

`Cc1ccc(-c2ccc(/C=C/c3ccccc3)cn2)nc1` displayed a fluorescence lifetime (in CC#N) of 1.06 ns.

Take `CN(C)c1ccc(/C=C/c2nc3c4ccccc4c4ccccc4c3o2)cc1`: the fluorescence lifetime (in CC#N) was 2.13 ns.
